How the values were obtained:
Entamoeba histolytica = test: Antiprotozoal activity against Entamoeba histolytica HM-1:IMSS; type: functional, organism-based
Giardia intestinalis = test: Antiprotozoal activity against Giardia lamblia IMSS:1090:1; type: functional, organism-based; conditions: Giardia duodenalis

| IC50 (Entamoeba histolytica) [µM] | IC50 (Giardia intestinalis) [µM] | SMILES |
| --- | --- | --- |
| 52.7 | 48.9 | C=C1[C@@H]2CC[C@H]3[C@]4(C)CCC[C@@](C)(C(=O)O[C@@H]5O[C@H](CO)[C@@H](O)[C@H](O)[C@H]5O)[C@H]4CC[C@]3(C2)[C@@H]1O[C@H]1O[C@@H](C)[C@@H](O)[C@@H](OC(C)=O)[C@@H]1O |
| 73.5 | 98.5 | C=C1[C@@H]2CC[C@H]3[C@]4(C)CCC[C@@](C)(C(=O)O)[C@H]4CC[C@]3(C2)[C@@H]1O[C@H]1O[C@@H](C)[C@@H](O)[C@@H](O)[C@@H]1O |
| 49.5 | 69.5 | C=C1[C@@H]2CC[C@H]3[C@]4(C)CCC[C@@](C)(C(=O)O[C@@H]5O[C@H](CO)[C@@H](O)[C@H](O)[C@H]5O)[C@H]4CC[C@]3(C2)[C@@H]1O[C@H]1O[C@@H](C)[C@@H](OC(C)=O)[C@@H](O)[C@@H]1O |
| 43.3 | 41.9 | C=C1[C@@H]2CC[C@H]3[C@]4(C)CCC[C@@](C)(C(=O)O[C@@H]5O[C@H](CO)[C@@H](O)[C@H](O)[C@H]5O)[C@H]4CC[C@]3(C2)[C@@H]1O[C@H]1O[C@@H](C)[C@@H](O)[C@@H](O)[C@@H]1O |

From ChEMBL document CHEMBL3739326, “ent-Kaurene Glycosides from Ageratina cylindrica” (J Nat Prod, 2015)
